Results taken from US5883076A, “Systemin” (Washington State University Research Foundation, Inc., priority 1994, dated 1999).
Where no end group is shown, it is not given here.

Experiments:
[1] = tested on: proteinase Inhibitor I and II; test: Proteinase inhibitor inducing activity supplied through cut stems/petioles of young tomato plants, radial immunodiffusion of leaf juice; type: in vivo, tomato (Lycopersicon esculentum)
Procedure: A search was initiated for systemic signals inducing proteinase Inhibitor I and II genes in tomato leaf extracts. […] The polypeptide was purified using high-performance liquid chromatography (HPLC, see Materials and Methods, below). Inducing activity of the polypeptide was assayed by cutting the petioles of young plants and introducing eluted fractions from column separations into the cut over a period of 30 min. The plants were subsequently transferred to small vials of water, incubated under constant light for 24 hours as described (C. A. Ryan, Plant Physiol. 54, 328, 1974), and the amount of proteinase Inhibitor I and II in the leaf juice was quantified by radial immunodiffusion in agar gels that contained rabbit antiserum to Inhibitor I or Inhibitor II (C. A. Ryan, Anal. Biochem. 19, 434, 1967; R. Trautman, K. Cowan, G. Wagner, Immunochemistry 8, 901, 1971). Over 30,000 young tomato plants were assayed over a 2.5 year period.
The leaves were incubated in solutions containing the synthetic systemin polypeptide and the proteinase inhibitors were assayed as described above in Example 1. Each data point was obtained from assays of the leaves of 36 tomato plants.

[2] = Loss of inducing activity of purified systemin after acid hydrolysis or proteolytic enzymes; type: physicochemical
[3] = in vivo; cited from earlier work
[4] = in vivo
[5] = supplied to cut stems of young tomato plants

CSCC[C@H](NC(=O)[C@H](CCCCN)NC(=O)[C@@H]1CCCN1C(=O)[C@@H]1CCCN1C(=O)[C@H](CC(=O)O)NC(=O)[C@H](CCCNC(=N)N)NC(=O)[C@H](CCCCN)NC(=O)[C@H](CO)NC(=O)[C@@H]1CCCN1C(=O)[C@@H]1CCCN1C(=O)[C@H](CCCCN)NC(=O)[C@H](CO)NC(=O)[C@H](CCC(N)=O)NC(=O)[C@@H](NC(=O)[C@H](C)N)C(C)C)C(=O)N[C@@H](CCC(N)=O)C(=O)N[C@H](C(=O)N[C@@H](CC(=O)O)C(=O)O)[C@@H](C)O [systemin, NH3 -AVQSKPPSKRDPPKMQTD-COO-]
number of tomato plants in which the sample could induce maximal accumulation of proteinase inhibitors ([1]; step 6 sample, approximately 1 μg of protein): 40,000 tomato plants | activity after acid hydrolysis [2]: total loss of activity | activity in the presence of trypsin and other proteolytic enzymes [2]: partial loss of activity

α-1, 4-oligogalacturonides
mobility from wound sites [3]: not found to be mobile

NH3 -AVQSKPPSKRDPPKMQTD-COO- [synthetic systemin polypeptide]
activity on a molar basis relative to previously reported PIIF oligogalactunonide inducers ([1]; in vivo): about 10^5 times | amount of polypeptide required to produce half maximal accumulation of Inhibitors I and II [1, 5]: About 40 fmol per plant | bioactivity for inducing synthesis and accumulation of Inhibitor I and II compared with native systemin [1, 5]: as effective as the native systemin polypeptide

^14 C-labeled polypeptide: synthetic systemin with [14C] Ala added to residues 2 through 18 (AVQSKPPSKRDPPKMQTD; also: 14C label, positions not clearly stated; UniProt P27058 179-196, looked up)
time for radioactivity to move throughout the leaf [4]: ≤ 30 min | time to identification of radiolabeled systemin in phloem exudate by HPLC [4]: 1 to 2 h
